Experimental findings from ChEMBL document CHEMBL3603767, “Discovery of new acetylcholinesterase inhibitors with small core structures through shape-based virtual screening” (Bioorg Med Chem Lett, 2015) are described below.

Active and inactive are the calls of the source. The rule behind the calls is not given here.

For orientation: inhibition means the percentage by which the read-out fell short of the control. As usually defined, the IC50 is the concentration at which inhibition is half-maximal. Read a low IC50 as inhibition by little substance.

In test [1] the target is Acetylcholinesterase (Electrophorus electricus) (UniProt O42275). The test can be described thus: Inhibition of Electrophorus electricus AChE at 10 uM pre-incubated for 5 mins before acetylthiocholine iodide substrate addition by Ellman's method. A general note: In Ellman's method for cholinesterases, released thiocholine reacts with DTNB.
The target in test [2] is Cholinesterase (Equus caballus) (UniProt P81908). The test can be described thus: Inhibition of equine serum BChE at 10 uM pre-incubated for 5 mins before butyrylthiocholineiodide substrate addition by Ellman's method.
In the next test the target is Acetylcholinesterase (Electrophorus electricus, UniProt O42275).
The target in the next test is Cholinesterase (Equus caballus, UniProt P81908).
Test [3] has as its target Acetylcholinesterase (Electrophorus electricus) (UniProt O42275). The test can be described thus: Mixed type inhibition of Electrophorus electricus AChE assessed as reduction in enzyme Vmax at 5 to 80 nM pre-incubated for 5 mins before acetylthiocholine iodide substrate addition by Lineweaver-Burk plot.
Test [4] shares this target. The test can be described thus: Mixed type inhibition of Electrophorus electricus AChE assessed as increase in enzyme Km at 5 to 80 nM pre-incubated for 5 mins before acetylthiocholine iodide substrate addition by Lineweaver-Burk plot.

Acetylcholinesterase, sequence (O42275 whole entry): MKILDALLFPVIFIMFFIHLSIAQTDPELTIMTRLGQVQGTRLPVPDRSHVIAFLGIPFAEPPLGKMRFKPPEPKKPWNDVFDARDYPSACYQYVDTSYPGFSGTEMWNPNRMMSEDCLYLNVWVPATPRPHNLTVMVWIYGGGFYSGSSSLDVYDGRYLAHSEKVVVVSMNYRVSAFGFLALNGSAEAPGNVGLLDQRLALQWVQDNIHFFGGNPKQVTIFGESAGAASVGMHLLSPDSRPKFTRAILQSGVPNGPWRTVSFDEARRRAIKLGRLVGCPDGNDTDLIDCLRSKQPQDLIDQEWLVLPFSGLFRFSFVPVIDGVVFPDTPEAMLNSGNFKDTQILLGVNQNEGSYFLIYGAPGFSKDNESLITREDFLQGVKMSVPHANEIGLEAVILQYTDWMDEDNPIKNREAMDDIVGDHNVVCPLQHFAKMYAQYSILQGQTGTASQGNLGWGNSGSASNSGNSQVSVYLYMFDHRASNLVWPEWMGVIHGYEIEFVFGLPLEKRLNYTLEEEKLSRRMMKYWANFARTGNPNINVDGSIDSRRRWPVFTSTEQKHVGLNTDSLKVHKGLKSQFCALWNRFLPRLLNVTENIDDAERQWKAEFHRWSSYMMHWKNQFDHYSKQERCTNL
Cholinesterase (Equus caballus), sequence (P81908 whole entry): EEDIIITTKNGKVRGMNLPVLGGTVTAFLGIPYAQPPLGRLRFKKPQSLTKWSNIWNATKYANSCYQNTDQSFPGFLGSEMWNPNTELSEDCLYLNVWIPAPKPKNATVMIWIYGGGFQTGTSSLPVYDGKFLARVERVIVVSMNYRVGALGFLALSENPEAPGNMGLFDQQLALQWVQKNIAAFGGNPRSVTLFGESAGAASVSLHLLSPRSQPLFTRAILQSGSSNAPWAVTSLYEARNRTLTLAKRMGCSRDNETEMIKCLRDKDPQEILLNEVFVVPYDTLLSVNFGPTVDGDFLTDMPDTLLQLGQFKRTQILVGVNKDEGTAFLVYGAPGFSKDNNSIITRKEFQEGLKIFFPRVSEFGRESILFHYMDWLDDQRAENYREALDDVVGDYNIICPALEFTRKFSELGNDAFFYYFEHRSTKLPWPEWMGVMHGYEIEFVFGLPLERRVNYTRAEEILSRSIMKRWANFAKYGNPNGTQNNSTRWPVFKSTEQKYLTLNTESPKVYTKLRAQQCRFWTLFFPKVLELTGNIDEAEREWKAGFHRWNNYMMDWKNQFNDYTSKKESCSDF
Cholinesterase, sequence (P81908 whole entry): as above
Acetylcholinesterase (Electrophorus electricus), sequence (O42275 24-633 limits assumed): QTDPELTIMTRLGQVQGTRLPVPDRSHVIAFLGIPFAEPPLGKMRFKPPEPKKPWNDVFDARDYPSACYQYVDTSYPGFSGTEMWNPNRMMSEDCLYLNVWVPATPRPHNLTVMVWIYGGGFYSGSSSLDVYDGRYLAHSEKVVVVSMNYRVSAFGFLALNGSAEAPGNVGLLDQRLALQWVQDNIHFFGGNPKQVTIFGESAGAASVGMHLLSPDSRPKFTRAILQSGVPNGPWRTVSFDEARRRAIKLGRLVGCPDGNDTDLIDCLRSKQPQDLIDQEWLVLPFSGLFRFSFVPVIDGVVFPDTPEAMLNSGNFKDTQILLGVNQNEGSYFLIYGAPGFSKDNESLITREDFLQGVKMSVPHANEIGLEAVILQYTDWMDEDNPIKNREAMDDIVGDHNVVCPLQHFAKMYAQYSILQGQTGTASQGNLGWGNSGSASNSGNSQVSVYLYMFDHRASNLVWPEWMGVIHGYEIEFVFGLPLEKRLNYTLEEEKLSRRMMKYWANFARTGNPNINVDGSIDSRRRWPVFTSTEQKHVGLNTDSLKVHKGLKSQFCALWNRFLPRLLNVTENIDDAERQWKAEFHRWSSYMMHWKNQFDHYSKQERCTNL

Turning to `CC1(C)CC(=O)c2c(nc3ccccc3c2N)C1`, the figures for the inhibition in test [1] and in test [2] were 92.8% and 85%, respectively. Also, the IC50 at Acetylcholinesterase is 7190 nM; on Cholinesterase, 36200 nM.
On to `Nc1c2c(nc3ccccc13)N(Cc1ccccc1)CC2`, for which the inhibition stood at 96.4% in test [1] and 99.8% in test [2]. For the same molecule, the results for the IC50 on Acetylcholinesterase and against Cholinesterase were 740 nM and 2250 nM, respectively.
For the molecule `Nc1ccc2nc3n(c(=O)c2c1)CCC3`, the results for the inhibition in test [1] and in test [2] were 59.2% and 31.7%, respectively.
The matching figures for `Oc1ccnc2ccccc12`: 32.5% and 28.8%.
The matching figures for `O=c1c(Br)c[nH]c2cccnc12`: 28.3% and 24.2%.
On the same counts, the results for `Oc1nc(S)nc2c1CCCN2` are 68.3% and 30.4%.
In the case of `Nc1c2c(nc3c1CCC3)CCCC2` [IPIDACRINE], the inhibition was 98.7% in test [1] and 99% in test [2]. The results for the IC50 against Acetylcholinesterase and against Cholinesterase were 170 nM and 70 nM, respectively.
On the same counts, the results for `COc1ccc2nc(C(F)(F)F)c(C#N)c(N)c2c1` are 85%, 35.4%, 690 nM and 30700 nM.
The matching figures for `Cc1cccc2c(N)c3c(nc12)N(C)CC3`: 89.7%, 90.8%, 1150 nM and 15900 nM.
As to `CN1CCNc2nc3ccccc3nc21`, the inhibition amounted to 26.1% in test [1] and 42.1% in test [2].
On the same counts, the results for `Nc1c(N)c2ccccc2oc1=O` are 8.33% and 27.9%.
For `CC(=O)c1c(C)nc2ccccc2c1N`, the inhibition result in test [3] and in test [4] was “Active” throughout. The results for the inhibition in test [1] and in test [2] were 96.9% and 99.7%, respectively. The IC50 at Acetylcholinesterase was found to be 320 nM; against Cholinesterase it was 460 nM.
With `Nc1nc(N)c2c(n1)CCC2`, the inhibition in test [1] is 50.8%; in test [2], 46.7%.
Regarding `CCCCN1CCc2c1nc1ccc(Br)cc1c2N`, the inhibition was found to be 90.6% in test [1] and 92.5% in test [2]. Besides, the figures for the IC50 on Acetylcholinesterase and against Cholinesterase were 300 nM and 8920 nM, respectively.
In the case of `N#CCSc1nc(N)c2c3c(sc2n1)CCCC3`, the inhibition in test [1] stood at 34.2%; in test [2], 65.4%.
With `Nc1c2c(nc3c1C1CCCCC1S3)CCCC2` (stereo not given), the inhibition result in test [3] and in test [4] was “Active” throughout. For the same molecule, the inhibition in test [1] is 95.6%; in test [2], 98.8%. For the same molecule, the values for the IC50 against Acetylcholinesterase and on Cholinesterase were 30 nM and 330 nM, respectively.
`Nc1c2c(nc3sccc13)CCCC2`: the figures for the inhibition in test [1] and in test [2] were 99.8% and 98.2%, respectively. Also, the values for the IC50 against Acetylcholinesterase and on Cholinesterase were 260 nM and 110 nM, respectively.
The matching figures for `Nc1c2c(nc3c4c(nn13)CCC4)CCC2`: 76.7%, 59.2%, 7410 nM and 60900 nM.
Regarding `Nc1nc(O)c2c(n1)CCC2`, the figures for the inhibition in test [1] and in test [2] were 45.6% and 45.8%, respectively.
On the same counts, the results for `O=C1c2ccccc2NC2=NCCCN12` are 26.7% and 42.5%.
In the case of `Nc1nc(N)c2c(Br)cccc2n1`, the inhibition in test [1] worked out at 76.9%; in test [2], 82.5%.
The matching figures for `O=c1c2ccccc2nc2n1CCCS2`: 59.2% and 45%.
The matching figures for `CC(=O)c1oc2ccccc2c1N`: 13.3% and 49.2%.
